One data set has as its system normal rats. Kind of data set: In vivo tolerability in normal rats. The conditions noted are these: broad dose range. An excerpt:
Compounds of the invention, for instance Example 1, show an advantageous combination of pharmacological properties, such as potentiation of human D1 receptor signaling in response to dopamine, high oral in vivo availabilty, in vivo efficacy in locomotor activation of animals that are habituated to the environment, and a favorable toxicity profile in preclinical testing. […].

Data set [1] in a line: Fraction unbound in plasma and brain, determined in vitro (equilibrium dialysis). It is filed as in vitro ADME. Here is the method:
Example 1 is orally dosed to male mouse from 1 mg/kg to 30 mg/kg in fed condition, and the plasma and brain concentration are determined 1.5 hr post-dose. The fraction unbound of the compound is determined in vitro as described previously (Zamek-Gliszczynski M J, Ruterbories K J, Ajamie R T, Wickremsinhe E R, Pothuri L, Rao M V, Basavanakatti V N, Pinjari J, Ramanathan V K, Chaudhary A K (2011) Validation of 96-well equilibrium dialysis with non-radiolabeled drug for definitive measurement of protein binding and application to clinical development of highly-bound drugs. J Pharm Sci 100: 2498-2507). The ratio (Kpuu) of unbound brain concentration (Cu,brain) vs. unbound plasma concertation (Cu,plasma) is determined as described previously (Raub T J, Wishart G N, Kulanthaivel P, Staton B A, Ajamie R T, Sawada G A, Gelbert L M, Shannon H E, Sanchez-Martinez C, De Dios A (2015) Brain Exposure of Two Selective Dual CDK4 and CDK6 Inhibitors and the Antitumor Activity of CDK4 and CDK6 Inhibition in Combination with Temozolomide in an Intracranial Glioblastoma Xenograft. Drug Metab Dispos. 43:1360-71). The data presented below for Example 1 are averages from 3 animals at each dose. “Con.” refers to concentration.
Example 8 was orally dosed to male mouse from 3 mg/kg to 60 mg/kg in fed condition, and the plasma and brain concentration was determined 1 hr post-dose. The fraction unbound of the compound was determined in vitro as described previously (Zamek-Gliszczynski M J, et al., Validation of 96-well equilibrium dialysis with non-radiolabeled drug for definitive measurement of protein binding and application to clinical development of highly-bound drugs, J. Pharm. Sci. (2011) 100: 2498-2507). The ratio (Kpuu) of unbound brain concentration (Cu,brain) vs. unbound plasma concertation (Cu,plasma) was determined as described previously (Raub T J, et al., Brain Exposure of Two Selective Dual CDK4 and CDK6 Inhibitors and the Antitumor Activity of CDK4 and CDK6 Inhibition in Combination with Temozolomide in an Intracranial Glioblastoma Xenograft. Drug Metab. Dispos. (2015) 43:1360-71). The data presented below for Example 8 are averages from 3 animals at each dose.
For orientation: In equilibrium dialysis only unbound substance equilibrates across the membrane.

[2] abbreviates: fraction unbound in brain, read-out: fu, brain.
Setting [3] is: fraction unbound in plasma, read-out: fu, plasma.

Results on two compounds are retold here after patent publication US10611751B2, “Dopamine D1 receptor positive allosteric modulators” (Eli Lilly and Company, priority 2018, dated 2020).

Where two headings read alike, the source gives them in different places.

As to `C[C@H]1c2cccc(-c3cnn(C)c3)c2C[C@H](CO)N1C(=O)Cc1c(Cl)cccc1Cl` [Example 1, 2-(2,6-dichlorophenyl)-1-((1S,3R)-3-(hydroxymethyl)-1-methyl-5-(1-methyl-1H-pyrazol-4-yl)-3,4-dihydroisoquinolin-2(1H)-yl)ethan-1-one], the “Tolerability / toxicity in vivo (in words)” value in the data set with normal rats is recorded as “generally well tolerated”. In addition, the fraction unbound in data set [1] (setting [2]) was 0.025; in data set [1] (setting [3]), 0.027.
On to `C[C@H]1c2cccc(-c3cn[nH]c3)c2C[C@H](CO)N1C(=O)Cc1c(Cl)cccc1Cl` [Example 8, 2-(2,6-dichlorophenyl)-1-((1S,3R)-3-(hydroxymethyl)-1-methyl-5-(1H-pyrazol-4-yl)-3,4-dihydroisoquinolin-2(1H)-yl)ethan-1-one], for which the fraction unbound amounted to 0.01 in data set [1] (setting [2]) and 0.031 in data set [1] (setting [3]).
